{"source": "patent US10517898B2", "about": "“Compositions and methods related to hematologic recovery” (The Regents of the University of California, priority 2014, dated 2019)", "tested_on": "PTPσ^−/− BM cells", "experiment": "Transendothelial migration assay (CFCs from migrated cells in lower chamber)", "format": "cell-based", "conditions": "25 μM EHT1864, 16 hours culture, mouse spleen endothelial cell transwell, CFCs of migrated cells (FIG. 3D)", "experimental": "Transendothelial migration assays were performed as follows. VeraVec™ mouse spleen endothelial cells (Angiocrine Bioscience, New York N.Y.) were cultured to confluence in […] pore transwells (Corning Incorporated, Corning N.Y.). Transwells were seeded with 200,000 BM cells in IMDM with 10% FBS, 1% penicillin-streptomycin, 125 ng/mL stem cell factor, 50 ng/mL Flt-3 ligand and 20 ng/mL thrombopoietin with or without 25 μM Rac inhibitor, EHT1864 (R&D Systems, Minneapolis, Minn.). 100 ng/mL SDF-1α (R&D) or media was added to the bottom chamber of the transwell. 16 hours post culture, cells in the bottom chamber were collected and CFCs were set up with the migrated cells.", "data": [{"compound": "O=c1cc(CN2CCOCC2)occ1OCCCCCSc1ccnc2cc(C(F)(F)F)ccc12", "note": "[EHT1864]", "values": [{"measurement": "transendothelial migration capacity of PTPσ^−/− cells", "value": "completely abrogated"}]}]}
